Source: patent US20080058373A1, “Compositions and Methods for Treating or Preventing Glaucoma or Progression Thereof” (priority 2006, published 2008)
Where “and” joins values, the source holds several entries; their conditions need not be identical. Identical values can stand only once. Entries after “also recorded” stand apart in the source; their conditions may differ.

Key:
[1] = tested on: New Zealand White rabbits; test: Intraocular pressure (IOP) in rabbits, topical dosing four times daily; type: in vivo; details: 0.1% (Group A)
Description: Seventy-five rabbits underwent two weeks of IOP training to condition them for IOP measurement. IOP was determined for both eyes of each animal using a Medtronic Solan, Model 30 classic pneumatonometer. Proparacaine hydrochloride 0.5% (1 drop) was delivered to each eye prior to IOP measurement. A two-point diurnal curve was established: IOP was recorded on Monday, Wednesday, and Friday of each week, at 8 a.m. and 12 p.m., with a ±1 hour range for each of these times. The time of the measurements was recorded.
(§1) On Days 1-31, animals received daily topical doses of the appropriate test article into the right eye. Animals were dosed four times per day, with doses administered 2 hours apart. Doses were administered using a calibrated 50-μL pipette. The eyelids were held close for 10 seconds immediately following dosing. The time of each dose administration was recorded.
Intraocular pressure (“IOP”) was determined for both eyes of each animal on Days 3, 5, 10, 12, 16, 18, 22, 24, 26, 30, and 32. IOP was evaluated with a Medtronic Solan, Model 30 classic pneumatonometer. Proparacaine hydrochloride 0.5% (1 drop) was delivered to each eye prior to IOP measurement. IOP was measured on Monday, Wednesday, and Friday of each week. A two-point diurnal curve was established: IOP was recorded at 8 a.m. and 12 p.m. on Day 3, and at 8 a.m. and 2 p.m. on later days, with a ±1 hour range for each of these times. The time of the measurements was recorded.
Descriptive statistics were prepared for IOP data of each treatment group (left and right eyes separately) at each measurement interval. The statistics included the number of observations (“N”), mean, standard deviation (“STD”), and standard error (“SEM”). Statistical analyses were conducted on IOP results using Statistical Analysis Systems (SAS Institute, Inc., Cary, N.C., V8.0). Parameters were evaluated using analysis of variance/GLM Procedure followed by Tukey's Standardized Range Test (Tukey, 1985) for post hoc comparisons of group means. The level of significance was set at a probability of p<0.05 for all statistical procedures. Group IOP means were compared at each interval, with left and right eyes compared separately.

[2] = tested on: New Zealand White rabbits; test: Mortality/morbidity in the rabbit IOP study; type: in vivo
Description: as §1
Animals determined to be moribund were euthanized with an intravenous injection of commercial euthanasia solution.

[3] = 0.1% (0.05 mg/dose) 4 × daily, Group A, individual rabbits

C[C@@H]1C[C@H]2[C@@H]3CCC4=CC(=O)C=C[C@]4(C)[C@@]3(F)[C@@H](O)C[C@]2(C)[C@@]1(O)C(=O)CO [dexamethasone, reference compound]
Intraocular Pressure in Untreated Left Eyes (A.M. Readings), MEAN ([1]; Day 3): 24.3 mmHg
Intraocular Pressure in Untreated Left Eyes (A.M. Readings), MEAN ([1]; Day 5): 24.3 mmHg
Intraocular Pressure in Untreated Left Eyes (A.M. Readings), MEAN ([1]; Day 10): 26.9 mmHg
Intraocular Pressure in Untreated Left Eyes (A.M. Readings), MEAN ([1]; Day 12): 26.2 mmHg
Intraocular Pressure in Untreated Left Eyes (A.M. Readings), MEAN ([1]; Day 16): 25.0 mmHg
Intraocular Pressure in Untreated Left Eyes (A.M. Readings), MEAN ([1]; Day 18): 24.2 mmHg
Intraocular Pressure in Untreated Left Eyes (A.M. Readings), MEAN ([1]; Day 22): 25.0 mmHg
Intraocular Pressure in Untreated Left Eyes (A.M. Readings), MEAN ([1]; Day 24): 23.6 mmHg
Intraocular Pressure in Untreated Left Eyes (A.M. Readings), MEAN ([1]; Day 26): 23.7 mmHg
Intraocular Pressure in Untreated Left Eyes (A.M. Readings), MEAN ([1]; Day 30): 24.0 mmHg
Intraocular Pressure in Untreated Left Eyes (A.M. Readings), MEAN ([1]; Day 32): 25.5 mmHg
Intraocular Pressure in Untreated Left Eyes (A.M. Readings), MEAN ([1]; Pre-Study): 24.4 mmHg
Day of Death (day euthanized or found dead) [2, 3]: 25 (2×) and 27 (2×) and 23 and 13
Recorded Notes (mortality) [2, 3]: Euthanized due to severe hemorrhagic diarrhea. Noted to be; also recorded: Euthanized. Very sick/poor health; left (untreated) eye; also recorded: Euthanized due to severe profuse hemorrhagic diarrhea; also recorded: Found dead. No rigor mortis present
Mortality (animals found dead or euthanized prior to study completion/number of animals in group) ([2]; 0.1%, 0.05 mg/dose, topical right eye 4 × daily, Day 33): 6/10^(3)
